Measured values from patent US4064169A, “Bis-(meta-amidinophenoxy)-compounds and pharmacologically acceptable acid addition salts thereof” (Eisai Co., Ltd., priority 1976, dated 1977).

Legend:
Experiment in all cases: Antifungal Test (agar dilution M.I.C.)
Type in all cases: cell-based
Conditions in all cases: Table 2; 37° C., 3 days (72 hours)
[1] = system: Candida albicans AHU 3656
Description: (§1) Respective agar plates were prepared by dissolving compounds under test in aseptic water to make a two fold dilution series, taking each 1 milliliter of said diluted solutions and 9 ml of Sabouraud medium into a petri dish, and sufficiently admixing the same.
(§2) On the other hand, an inoculum was prepared by cultivating an examined fungus (microorganism) on the Sabouraud slant medium and suspending two loopful of the incubated fungus in 10 ml of sterilized physiological saline water.
(§3) One loopful of the inoculum was streaked on the above-mentioned agar plate. After the agar plate was incubated at a defined temperature for a predetermined period of time to determine the minimal inhibitory concentration (M.I.C.).
(§4) Incubation temperature:
(§5) Incubation time: 3 days (72 hours) and
(§6) Incubation time: 3 days (72 hours)
(§7) activity incubation conditions:
(§8) Incubation time 3 days (72 hours)
(§9) Incubation time 7 days (168 hours)
(§10) Incubation time 2 days (48 hours)

[2] = system: Candida albicans NAKAGAWA IFM 4017
Description: as §1, §2, §3, §4, §5, §6, §7, §8, §9, §10

[3] = system: Candida albicans Yu-1200 IFM 4020
Description: as §1, §2, §3, §4, §5, §6, §7, §8, §9, §10

Measured: M.I.C.

C[C@@H]1[C@H](O)[C@@H](C)/C=C/C=C/CC/C=C/C=C/C=C/C=C/C(O[C@H]2O[C@H](C)[C@@H](O)[C@H](N)[C@@H]2O)CC2O[C@](O)(CC(O)C(O)CCC(O)CC(O)CC(O)CC(=O)O[C@H]1C)CC(O)C2C(=O)O (stereo partly drawn) [Nystatin, reference compound]
6.25 µg/mL: all assays above
